Results as given in PubChem BioAssay (NCI).
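Results reflect a 48-hour exposure of cells in 96-well plates to compound at five concentrations. GI50 = concentration required for 50% inhibition of growth. Definition used: TGI = concentration required for complete inhibition of growth.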

Columns and labels:
Experiment in all cases: DTP human tumour cell line panel, 48 h
HT29 colon = tested on: HT29 colon
OVCAR-4 ovarian = tested on: OVCAR-4 ovarian
MALME-3M melanoma = tested on: MALME-3M melanoma
UACC-62 melanoma = tested on: UACC-62 melanoma
HCC-2998 colon = tested on: HCC-2998 colon
EKVX NSCLC = tested on: EKVX NSCLC
OVCAR-8 ovarian = tested on: OVCAR-8 ovarian
COLO 205 colon = tested on: COLO 205 colon
NCI/ADR-RES ovarian = tested on: NCI/ADR-RES ovarian
BT-549 breast = tested on: BT-549 breast

| Compound | TGI (HT29 colon) | TGI (OVCAR-4 ovarian) | TGI (MALME-3M melanoma) | TGI (UACC-62 melanoma) | TGI (HCC-2998 colon) | TGI (EKVX NSCLC) | TGI (OVCAR-8 ovarian) | GI50 (HT29 colon) | GI50 (OVCAR-4 ovarian) | GI50 (MALME-3M melanoma) | GI50 (UACC-62 melanoma) | GI50 (HCC-2998 colon) | GI50 (EKVX NSCLC) | GI50 (OVCAR-8 ovarian) | GI50 (COLO 205 colon) | TGI (COLO 205 colon) | GI50 (NCI/ADR-RES ovarian) | TGI (NCI/ADR-RES ovarian) | GI50 (BT-549 breast) | TGI (BT-549 breast) |
| --- | --- | --- | --- | --- | --- | --- | --- | --- | --- | --- | --- | --- | --- | --- | --- | --- | --- | --- | --- | --- |
| O=c1cccccc1[O-].O=c1cccccc1[O-].O=c1cccccc1[O-].[Sm+3] | > 100 µM | > 100 µM | > 100 µM | > 100 µM | > 100 µM | > 100 µM | > 100 µM | – | – | – | – | – | – | – | – | – | – | – | – | – |
| [Cl-].[Gd+3].[O-]/N=C(\c1ccccc1)c1ccccn1.[O-]/N=C(\c1ccccc1)c1ccccn1.[O-]/N=C(\c1ccccc1)c1ccccn1 | > 100 µM | > 100 µM | > 100 µM | > 100 µM | > 100 µM | > 100 µM | > 100 µM | 44.9 µM | 43.7 µM | 95.8 µM | 40.7 µM | 30.7 µM | 42.7 µM | 34.3 µM | 47.2 µM | > 100 µM | – | – | – | – |
| OCC(O)C(O)C(O)C(O)c1nn[nH]n1 (centres undefined) | > 100 µM | > 100 µM | > 100 µM | > 100 µM | – | > 100 µM | > 100 µM | – | – | – | – | – | – | – | – | > 100 µM | – | – | – | – |
| COC(=O)[C@]1(C)CCC[C@]2(C)[C@@H]1CCC13C[C@@H](C=CO1)[C@@H](C)CC32O (some centres undefined) | > 100 µM | > 100 µM | – | > 100 µM | – | > 100 µM | > 100 µM | 11 µM | 61.5 µM | – | > 100 µM | – | 2.07 µM | > 100 µM | 64.4 µM | > 100 µM | > 100 µM | > 100 µM | > 100 µM | > 100 µM |
| COC(=O)C1CCC(=O)N1/C(C)=N/NC(=O)Nc1ccc(Cl)c(Cl)c1 (centres undefined) | – | > 100 µM | – | > 100 µM | > 100 µM | > 100 µM | > 100 µM | – | – | – | – | – | – | – | – | > 100 µM | – | – | – | – |
| O=C(/C=C(\[O-])c1ccccc1)CCCCCCC(=O)/C=C(\[O-])c1ccccc1.O=C(/C=C(\[O-])c1ccccc1)CCCCCCC(=O)/C=C(\[O-])c1ccccc1.O=C(/C=C(\[O-])c1ccccc1)CCCCCCC(=O)/C=C(\[O-])c1ccccc1.[Nd+3].[Nd+3] | > 50 µM | > 50 µM | > 50 µM | > 50 µM | > 50 µM | > 50 µM | > 50 µM | > 50 µM | > 50 µM | > 50 µM | > 50 µM | > 50 µM | > 50 µM | > 50 µM | > 50 µM | > 50 µM | – | – | – | – |
| COc1ccc(-c2cc(-c3ccccc3)nc(NCCNc3ccnc4cc(Cl)ccc34)n2)cc1 | 3.43 µM | 3.71 µM | 3.42 µM | 3.52 µM | – | 3.59 µM | – | 1.72 µM | 1.93 µM | 1.7 µM | 1.84 µM | – | 1.79 µM | – | 1.84 µM | 3.83 µM | 1.71 µM | 3.79 µM | – | – |
| COc1ccc(C(=O)O/N=C2/CCCCC2CN(C)C)cc1 (centres undefined) | > 100 µM | > 100 µM | > 100 µM | > 100 µM | > 100 µM | > 100 µM | > 100 µM | – | – | – | – | – | – | – | – | > 100 µM | – | – | – | – |
| CC(=O)[O-].[Mn+3].[O-]c1ccc(Cl)cc1C=NCCN=Cc1cc(Cl)ccc1[O-] | > 100 µM | > 100 µM | > 100 µM | > 100 µM | > 100 µM | – | > 100 µM | > 100 µM | > 100 µM | 34.7 µM | > 100 µM | 66.3 µM | – | > 100 µM | – | – | – | – | – | – |
| COc1ccc2c(c1)[n+](=O)c(C(C)=O)c(C)n2[O-] | > 100 µM | > 100 µM | > 100 µM | > 100 µM | > 100 µM | > 100 µM | > 100 µM | – | – | – | – | – | – | – | – | > 100 µM | – | – | – | – |
| O=C(CC1=Nc2nnc(-c3nnc4n3C(=O)C(CC(=O)C3CC3)=N4)n2C1=O)C1CC1 | > 100 µM | > 100 µM | > 100 µM | > 100 µM | > 100 µM | – | – | – | – | – | – | – | – | – | – | > 100 µM | – | – | – | – |
| CC1CC(C)C(C(O)CC2CC(=O)N(c3ccccc3)C(=O)C2)C(O)C1 (centres undefined) | > 100 µM | > 100 µM | > 100 µM | > 100 µM | > 100 µM | > 100 µM | > 100 µM | – | – | – | – | – | – | – | – | > 100 µM | – | – | – | – |
| N#CCCN(CCC#N)c1ccc(C=Nc2ccc(F)cc2)cc1 | > 100 µM | > 100 µM | > 100 µM | > 54.2 µM | > 100 µM | > 100 µM | > 100 µM | – | – | – | – | – | – | – | – | 70.3 µM | – | – | – | > 100 µM |
| NC(N)=N/N=C/c1c(-c2ccc(Cl)c([N+](=O)[O-])c2)nc2sc3ccccc3n12 | > 50 µM | – | – | 1.58 µM | 0.95 µM | 7.16 µM | 2.76 µM | 1.93 µM | – | – | 0.849 µM | 0.296 µM | 2.03 µM | 1.19 µM | 0.98 µM | – | 0.583 µM | 1.76 µM | 0.895 µM | 2.12 µM |
| COC(=O)c1sc(=NC(=S)N2CCCCC2)sc1C(=O)OC | – | > 100 µM | > 100 µM | > 100 µM | > 100 µM | – | > 100 µM | – | – | – | – | – | – | – | – | > 100 µM | – | – | – | – |
| COc1cc(/C=C\c2cc(OC)c(OC)c(OC)c2)cc(NS(=O)(=O)c2ccc(Cl)cc2)c1OC | 10.2 µM | > 100 µM | – | 36.7 µM | > 100 µM | – | > 100 µM | 0.348 µM | 1.53 µM | – | 0.435 µM | 1.98 µM | – | 0.6 µM | 0.253 µM | 0.652 µM | 0.365 µM | > 100 µM | 0.966 µM | 77 µM |
| COc1cc2cc3c(c(O)c2c(O)c1-c1c(OC)cc2cc4c(c(O)c2c1O)C(=O)O[C@H](C)C4)C(=O)O[C@H](C)C3 | > 100 µM | > 100 µM | – | 32.5 µM | > 100 µM | 63.9 µM | > 100 µM | 37.5 µM | 22.4 µM | – | 17.1 µM | 33 µM | 16.2 µM | 33.5 µM | 27.2 µM | 78.7 µM | 37.2 µM | > 100 µM | – | – |
| O=C(N/N=C/c1ccc(F)cc1)c1ccc(C(F)(F)F)nc1Nc1cccc(C(F)(F)F)c1 | 5.23 µM | 6.55 µM | 4.68 µM | 5.77 µM | 4.96 µM | 4.64 µM | 6.62 µM | 2.02 µM | 0.339 µM | 1.28 µM | 1.66 µM | 0.902 µM | 0.713 µM | 1.7 µM | 1.56 µM | 3.47 µM | 1.28 µM | 6.58 µM | – | – |
| Nc1ccc(C(=O)/C=C/c2ccccc2O)cc1 | > 100 µM | > 100 µM | > 100 µM | > 100 µM | > 100 µM | > 100 µM | > 100 µM | – | – | – | – | – | – | – | – | > 100 µM | – | – | – | – |
| CN(C)c1ccc(O[Si](Oc2ccc(N(C)C)cc2)(Oc2ccc(N(C)C)cc2)Oc2ccc(N(C)C)cc2)cc1 | > 100 µM | > 100 µM | > 100 µM | > 100 µM | > 100 µM | > 100 µM | > 100 µM | – | – | – | – | – | – | – | – | > 100 µM | – | – | – | – |
| CCOc1ccccc1NC(=O)C1=C(C)NC(C)=C(C(=O)Nc2ccccc2OCC)C1c1ccc([N+](=O)[O-])cc1 | > 100 µM | > 100 µM | > 100 µM | > 100 µM | > 100 µM | > 100 µM | – | – | – | – | – | – | – | – | – | > 100 µM | – | – | – | – |
| CCOc1ccc(Nc2nc(-c3c(C)nc4ncccn34)cs2)cc1 | – | – | – | 12.8 µM | 15.7 µM | – | 15.9 µM | – | – | – | < 0.01 µM | 0.0522 µM | – | 0.0401 µM | < 0.01 µM | 0.0404 µM | < 0.01 µM | 29.1 µM | 0.0268 µM | 14.9 µM |
| CN(C)c1ccc(C2CC(C)(O)Oc3cc4c(cc32)OCO4)cc1 (centres undefined) | 76.1 µM | – | > 100 µM | > 100 µM | 95.1 µM | > 100 µM | 94.7 µM | – | – | – | – | – | – | – | – | 50.3 µM | – | > 100 µM | – | – |
| Nc1nc(=S)[nH]c(C(=O)Nc2nccs2)c1-c1ccccc1 | > 100 µM | > 100 µM | > 100 µM | > 100 µM | > 100 µM | > 100 µM | > 100 µM | – | – | – | – | – | – | – | – | > 100 µM | – | – | – | – |
| c1ccc2c3c([nH]c2c1)C1C2CCCCN2C(c2ccncc2)N1CC3 (centres undefined) | > 100 µM | > 100 µM | > 100 µM | > 100 µM | – | > 100 µM | > 100 µM | – | – | – | – | – | – | – | – | > 100 µM | – | – | – | – |
| COc1cc(CCc2ccc(OC(C)=O)cc2)cc(OC)c1OC | > 100 µM | > 100 µM | > 100 µM | > 100 µM | – | > 100 µM | > 100 µM | – | – | – | – | – | – | – | – | > 100 µM | – | – | – | – |
| CC(=O)OCC1OC(n2c(=S)n(-c3ccccc3)c(=O)c3cc(Br)cc(Br)c32)C(OC(C)=O)C(OC(C)=O)C1OC(C)=O (centres undefined) | > 100 µM | – | > 100 µM | > 100 µM | > 100 µM | > 100 µM | > 100 µM | – | – | – | – | – | – | – | – | > 100 µM | – | – | – | – |
| NNC(=O)N/N=C1\CN(c2ccc(Cl)cc2Cl)C(=O)C(=O)C1c1nc2ccccc2o1 (centres undefined) | > 100 µM | > 100 µM | > 100 µM | > 100 µM | > 100 µM | > 100 µM | > 100 µM | – | – | – | – | – | – | – | – | > 100 µM | – | – | – | – |
